Reference: patent US20240398784A1, “C-LINKED ISOQUINOLINE AMIDES AS LRRK2 INHIBITORS, PHARMACEUTICAL COMPOSITIONS, AND USES THEREOF” (Merck Sharp & Dohme LLC, priority 2021, published 2024)

Molecular target: LRRK2 G2019S (Homo sapiens, UniProt Q5S007, G2019S)
Assay: LRRK2 G2019S Km ATP LanthaScreen assay
Type: biochemical
Details: read-out: LRRK2 pIC50 (converted)
Procedure: Unless otherwise noted, all reactions are magnetically stirred. Unless otherwise noted, when diethyl ether is used in the experiments described below, it is Fisher ACS certified material and is stabilized with BHT. Unless otherwise noted, “concentrated” and/or “solvent removed under reduced pressure” means evaporating the solvent from a solution or mixture using a rotary evaporator or vacuum pump. Unless otherwise noted, flash chromatography is carried out on a Teledyne Isco (Lincoln, NE), Analogix (Burlington, WI), or Biotage (Stockholm, SWE) automated chromatography system using a commercially available cartridge as the column. Columns may be purchased from Teledyne Isco, Analogix, Biotage, Varian (Palo Alto, CA), or Supelco (Bellefonte, PA) and are usually filled with silica gel as the stationary phase. Reverse phase prep-HPLC conditions, where used, can be found at the end of each experimental section. Aqueous solutions were concentrated on a Genevac (Ipswich, ENG) or by freeze-drying/lyophilization.

Sequence of LRRK2 G2019S (Q5S007 whole entry G2019S): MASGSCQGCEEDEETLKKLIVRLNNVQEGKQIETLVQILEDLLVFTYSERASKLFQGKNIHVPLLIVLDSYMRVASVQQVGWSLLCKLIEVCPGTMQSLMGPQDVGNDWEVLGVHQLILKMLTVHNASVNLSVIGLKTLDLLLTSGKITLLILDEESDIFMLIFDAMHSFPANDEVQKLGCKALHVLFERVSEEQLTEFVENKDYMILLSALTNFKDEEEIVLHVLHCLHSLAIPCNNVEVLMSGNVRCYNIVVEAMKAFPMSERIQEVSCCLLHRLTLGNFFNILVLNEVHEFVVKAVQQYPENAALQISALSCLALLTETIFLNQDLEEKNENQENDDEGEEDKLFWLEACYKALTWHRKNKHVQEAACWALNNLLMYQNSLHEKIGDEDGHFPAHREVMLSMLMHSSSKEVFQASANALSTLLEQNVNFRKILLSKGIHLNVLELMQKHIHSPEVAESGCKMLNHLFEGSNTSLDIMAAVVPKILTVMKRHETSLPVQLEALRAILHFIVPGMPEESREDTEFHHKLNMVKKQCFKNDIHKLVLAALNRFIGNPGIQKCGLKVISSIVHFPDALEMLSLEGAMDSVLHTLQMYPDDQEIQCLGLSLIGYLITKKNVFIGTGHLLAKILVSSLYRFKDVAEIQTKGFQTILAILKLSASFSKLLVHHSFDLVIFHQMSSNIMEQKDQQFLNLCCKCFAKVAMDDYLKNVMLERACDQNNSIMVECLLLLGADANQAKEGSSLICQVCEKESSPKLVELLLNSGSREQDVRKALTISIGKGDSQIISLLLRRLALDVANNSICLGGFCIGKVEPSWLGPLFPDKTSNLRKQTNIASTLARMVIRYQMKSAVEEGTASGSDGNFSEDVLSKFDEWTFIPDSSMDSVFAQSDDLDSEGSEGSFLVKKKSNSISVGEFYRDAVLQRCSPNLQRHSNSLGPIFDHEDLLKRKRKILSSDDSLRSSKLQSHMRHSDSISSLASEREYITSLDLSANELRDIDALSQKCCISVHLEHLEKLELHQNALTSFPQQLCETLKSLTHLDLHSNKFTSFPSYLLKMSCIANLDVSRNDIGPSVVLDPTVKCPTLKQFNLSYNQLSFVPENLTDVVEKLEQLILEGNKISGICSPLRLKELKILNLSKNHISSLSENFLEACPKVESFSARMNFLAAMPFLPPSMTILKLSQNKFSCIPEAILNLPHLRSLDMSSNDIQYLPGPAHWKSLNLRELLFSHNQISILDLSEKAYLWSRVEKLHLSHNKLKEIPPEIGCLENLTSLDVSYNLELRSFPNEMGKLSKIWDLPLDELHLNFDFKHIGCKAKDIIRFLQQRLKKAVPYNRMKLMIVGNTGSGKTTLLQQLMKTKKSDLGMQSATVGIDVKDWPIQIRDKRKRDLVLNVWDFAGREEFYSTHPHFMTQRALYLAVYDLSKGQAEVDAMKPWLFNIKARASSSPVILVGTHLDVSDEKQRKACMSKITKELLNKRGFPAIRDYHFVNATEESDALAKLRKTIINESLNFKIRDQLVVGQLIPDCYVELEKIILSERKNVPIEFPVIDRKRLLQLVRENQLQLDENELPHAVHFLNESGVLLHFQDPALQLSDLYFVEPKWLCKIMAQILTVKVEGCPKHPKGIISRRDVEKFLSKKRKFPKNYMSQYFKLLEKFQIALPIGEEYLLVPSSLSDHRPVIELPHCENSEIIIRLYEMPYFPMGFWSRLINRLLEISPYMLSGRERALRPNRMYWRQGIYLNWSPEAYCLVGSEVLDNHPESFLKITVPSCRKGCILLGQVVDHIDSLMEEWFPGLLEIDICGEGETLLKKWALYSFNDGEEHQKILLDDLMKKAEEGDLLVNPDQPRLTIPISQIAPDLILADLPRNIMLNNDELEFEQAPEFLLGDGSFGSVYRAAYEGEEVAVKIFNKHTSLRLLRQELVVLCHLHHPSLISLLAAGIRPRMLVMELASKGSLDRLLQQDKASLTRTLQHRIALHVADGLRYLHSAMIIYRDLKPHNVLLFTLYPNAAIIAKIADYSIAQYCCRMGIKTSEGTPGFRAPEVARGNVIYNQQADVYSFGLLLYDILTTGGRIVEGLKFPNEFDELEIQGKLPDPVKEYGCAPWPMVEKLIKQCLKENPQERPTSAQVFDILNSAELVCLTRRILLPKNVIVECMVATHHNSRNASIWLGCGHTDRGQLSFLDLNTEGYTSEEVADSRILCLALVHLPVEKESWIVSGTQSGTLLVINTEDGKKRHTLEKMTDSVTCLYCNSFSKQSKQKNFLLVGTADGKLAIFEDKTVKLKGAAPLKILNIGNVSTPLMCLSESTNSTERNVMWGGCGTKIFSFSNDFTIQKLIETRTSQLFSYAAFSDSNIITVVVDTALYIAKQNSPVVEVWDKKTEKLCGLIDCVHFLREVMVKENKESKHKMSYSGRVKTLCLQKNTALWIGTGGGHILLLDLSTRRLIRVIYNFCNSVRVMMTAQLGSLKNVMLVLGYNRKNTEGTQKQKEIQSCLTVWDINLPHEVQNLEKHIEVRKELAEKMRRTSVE

| SMILES | IC50 [nM] |
| --- | --- |
| CC1C(C(=O)Nc2cc3cc(C4CCN(C5COC5)CC4)c(Cl)cc3cn2)C1(F)F (racemic) [Ex-1.6, Rac-N-(7-chloro-6-(1-(oxetan-3-yl)piperidin-4-yl)isoquinolin-3-yl)-2,2-difluoro-3-methylcyclopropane-1-carboxamide] | 1.86 |
| O=C(Nc1cc2cc(C3CCN(C4COC4)CC3)c(Cl)cc2cn1)C1CC12CCOCC2 (racemic) [Ex-1.9, Rac-N-(7-chloro-6-(1-(oxetan-3-yl)piperidin-4-yl)isoquinolin-3-yl)-6-oxaspiro[2.5]octane-1-carboxamide] | 2.88 |
| O=C(Nc1cc2cc(C3CCN(C4COC4)CC3)c(Cl)cc2cn1)C1CC12CCC2 (racemic) [Ex-1.14, Rac-N-(7-chloro-6-(1-(oxetan-3-yl)piperidin-4-yl)isoquinolin-3-yl)spiro[2.3]hexane-1-carboxamide] | 1.35 |
| CC1CC(C(=O)Nc2cc3cc(C4CCN(C5(C)COC5)CC4)c(Cl)cc3cn2)C1 (racemic) [Ex-1.16, Rac-N-(7-chloro-6-(1-(3-methyloxetan-3-yl)piperidin-4-yl)isoquinolin-3-yl)-3-methylcyclobutane-1-carboxamide] | 5.5 |
| CC(C)C1CC(C(=O)Nc2cc3cc(C4CCN(C5(C)COCC5O)CC4)c(Cl)cc3cn2)C1 (racemic) [Ex-1.22, Rac-N-(7-chloro-6-(1-(4-hydroxy-3-methyltetrahydrofuran-3-yl)piperidin-4-yl)isoquinolin-3-yl)-3-isopropylcyclobutane-1-carboxamide] | 0.977 |
| COC1CC(C(=O)Nc2cc3cc(C4CCN(C5COC5)CC4)c(Cl)cc3cn2)C1 (racemic) [Ex-7.9, Rac-N-(7-chloro-6-(1-(oxetan-3-yl)piperidin-4-yl)isoquinolin-3-yl)-3-methoxycyclobutane-1-carboxamide] | 2.63 |
| Cn1ncc(C2CC2C(=O)Nc2cc3cc(C4CCN(C5(C)COCC5O)CC4)c(Cl)cc3cn2)n1 (racemic) [Ex-20.2, (1R,2R and 1S,2S)-N-(7-chloro-6-(1-(4-hydroxy-3-methyltetrahydrofuran-3-yl)piperidin-4-yl)isoquinolin-3-yl)-2-(2-methyl-2H-1,2,3-triazol-4-yl)cyclopropane-1-carboxamide] | 0.0813 |
| COC1CC(C(=O)Nc2cc3cc(C4(C#N)CC45CC5)ccc3cn2)C1 (single isomer, unassigned) [Ex-1.2, (1R,3R or 1S,3S)-N-(6-((R or S)-1-cyanospiro[2.2]pentan-1-yl)isoquinolin-3-yl)-3-methoxycyclobutane-1-carboxamide] | 0.661 |
| COC1CC(C(=O)Nc2cc3cc(C4(C#N)CC45CC5)ccc3cn2)C1 (single isomer, unassigned) [Ex-1.3, (1R,3R or 1S,3S)-N-(6-((R or S)-1-cyanospiro[2.2]pentan-1-yl)isoquinolin-3-yl)-3-methoxycyclobutane-1-carboxamide] | 0.631 |
| COC1CC(C(=O)Nc2cc3cc(C4(C#N)CC45CC5)ccc3cn2)C1 (single isomer, unassigned) [Ex-1.4, (1R,3R or 1S,3S)-N-(6-((R or S)-1-cyanospiro[2.2]pentan-1-yl)isoquinolin-3-yl)-3-methoxycyclobutane-1-carboxamide] | 3.63 |
| O=C(Nc1cc2cc(C3CCN(C4COC4)CC3)c(Cl)cc2cn1)C1CC1(F)F (single isomer, unassigned) [Ex-1.5, (R or S)-N-(7-chloro-6-(1-(oxetan-3-yl)piperidin-4-yl)isoquinolin-3-yl)-2,2-difluorocyclopropane-1-carboxamide] | 5.89 |
| O=C(Nc1cc2cc(C3CCN(C4COC4)CC3)c(Cl)cc2cn1)[C@H]1C[C@@H]1F (single isomer, unassigned) [Ex-1.7, (1R,3S or 1S,3R)-N-(7-chloro-6-(1-(oxetan-3-yl)piperidin-4-yl)isoquinolin-3-yl)-2-fluorocyclopropane-1-carboxamide] | 1.12 |
